Read-outs that look alike come from different tables or passages of the source.
Assays:
[1] = test system: Influenza virus A/CA/10/2009; assay: microbe, parasite or virus in culture; type: cell-based; settings: unidentified influenza virus, MDCK, read-out: A/CA/10/2009 (EC50, μM)
[2] = test system: Cowpox Virus (Strain Brighton); assay: microbe, parasite or virus in culture; type: cell-based; settings: Fibroblast, read-out: CPXV EC50, μM
[3] = test system: Influenza virus B/FL/4/2006; assay: microbe, parasite or virus in culture; type: cell-based; settings: unidentified influenza virus, MDCK, read-out: B/FL/4/2006 (EC50, μM)
[4] = test system: Epstein-Barr virus; assay: DNA Hybridization Assay for EBV in Akata cells; type: cell-based; settings: human gammaherpesvirus 4, read-out: Efficacy DNA Hybridization Assay (EC50)
Method: Akata cells latently infected with EBV were obtained from John Sixbey. The GS strain of HHV-6A was obtained through the NIH AIDS Research and Reference Reagent Program.
Each experiment that evaluated the antiviral activity of the compounds included both positive and negative control compounds to ensure the performance of each assay. Concurrent assessment of cytotoxicity was also performed for each study at equivalent levels of compound exposure. When sufficient material was available, multiple assays were performed for each compound evaluation to obtain statistical data.
Assays for EBV were performed in Akata cells that were induced to undergo a lytic infection with 50 μg/ml of a goat anti-human IgG antibody by standard methods. Experimental compounds were diluted in round bottom 96-well plates to yield concentrations ranging from 20 to 0.016 μM. Akata cells were added to the plates at a concentration of 4×10^4 cells per well and incubated for 72 h. For HHV-6 assays, compounds were serially diluted in 96-well plates then 1×10^4 uninfected HSB-2 or Molt-3 cells were added to each well. Infection was initiated by adding HHV-6A infected HSB-2 cells, or HHV-6B infected Molt-3 cells, at a ratio of approximately 1 infected cell for every 10 uninfected HSB-2 cells or Molt-3 cells respectively and incubated for 7 d at 37° C. […]

[5] = test system: human foreskin fibroblast cells; assay: Neutral red cytotoxicity assay in human foreskin fibroblast cells; settings: read-out: VACV CC50, μm, parallel to VACV assay (second printing of Table 4)
[6] = in vitro; settings: dog
[7] = Cytotoxicity in MEF cells; type: cell-based; settings: mouse, cell line MEF (MCMV row)
[8] = test system: BKV (Gardner strain); assay: BKV EC50 in Vero cells (qPCR of supernatant BKV DNA); type: cell-based, BK virus (BKV); settings: Betapolyomavirus hominis
Method: Costar 96-well tissue culture plates were seeded with 10,000 Vero cells/well in DMEM containing 2% Hyclone Standard Fetal Bovine Serum (FBS, Cat 5H30088.03) and 1% Hyclone Penicillin and Streptomycin. Outer wells were not used to minimize the edge-effect produced by extended incubations. Cells were inoculated with 115 BKV DNA copies/cell (ATCC, Gardner strain). Serial dilutions of test compounds were added to the cells and plates were incubated for 10 days at 37° C. in 5% CO2. After the 10-day incubation, 50 μL supernatant was mixed with 50 μL 2× lysis buffer that provided a final concentration 0.5 mg/mL protease K, 50 mM KCl, 10 mM Tris-Cl pH 8.0, 2.5 mM MgCl2, 0.45% IGEPAL, and 0.45% Tween-20 dissolved in DEPC-treated water. Each plate was incubated for 2 hours at 55° C. Supernatant BKV DNA was measured by quantitative polymerase chain reaction (qPCR) using forward and reverse BKV PCR primers, and a FAM-labeled probe. Absolute quantitation of viral copy number was performed using a standard curve with dilutions of a BKV DNA amplicon containing sequences homologous to the amplified fragment. The following qPCR amplification conditions were used: 1 cycle at 95° C. for 10 minutes, followed by 45 cycles of 95° C. for 15 seconds and 60° C. for 60 seconds. The qPCR reactions were performed using an Applied Biosystems 7500 real Time PCR System. Gen 5 software (BioTek Instruments, Inc.) was used to calculate the concentration which inhibited the viral DNA levels of BKV-infected Vero cells by 50% (EC50).

[9] = in vitro; settings: African green monkey
[10] = Cytotoxicity (CC50) in Vero cells; type: cell-based; settings: African green monkey, cell line Vero (BKV row)
Method: Costar 96-well tissue culture plates were seeded with 10,000 Vero cells (ATCC)/well in DMEM (ATCC, Cat 30-2002) containing 2% Hyclone Standard Fetal Bovine Serum (FBS, Cat 5H30088.03) and 1% Hyclone Penicillin and Streptomycin (Cat SV30010). Outer wells were not used to minimize the edge-effect produced by extended incubations. Serial dilutions of test compounds were added to the cells and plates were incubated for 7 days at 37° C. in 5% CO2. After 7 days of incubation 40 μL of Cell Titer 96® Aqueous MTS Reagent (Promega, G111) was added as directed by manufacturer to the 200 iut media in each well and incubated at 37° C. until the untreated-cell controls developed an 490 nm absorbance between 1.1 and 1.8. The final absorbance readings were read using a BioTek Synergy 2, and Gen 5 software (BioTek Instruments, Inc.) was used to calculate the concentration which inhibited Vero cells by 50% (CC50).

Which EC50 [1] does the source give for `CC(C)CCCCCCCCCCCCCCOCCCOP(=O)(O)COC(CO)Cn1ccc(=O)[nH]c1=O` (centres unmarked) [Compound 12] here?
Its EC50 is > 4 µM.

What about the EC50 [2] of the same compound?
Its EC50 is > 10 µM.

What about the EC50 [3] of the same compound?
Its EC50 is > 4 µM.

And the EC50 [4]?
The EC50 was > 10 µM.

What about the CC50 [5] of the same compound?
Its CC50 is > 10 µM.

What about the CC50 [6] of the same compound?
The CC50 was 17.2 µM.

What about the CC50 [7] of the same compound?
The CC50 was 60 µM.

What about the EC50 ([8]; BKV in Vero cells (Table 7), read-out: BKV EC50) of the same compound?
Its EC50 is 1.55 µM.

What about the EC50 ([8]; Virus BKV, cell line Vero (Table 8), read-out: EC50) of the same compound?
The EC50 was 2.1 µM.

What about the CC50 [9] of the same compound?
The CC50 was 29 µM.

And the CC50 at 7 days [10]?
Its CC50 at 7 days is 93 µM.
